Results: patent publication US20140148422A1, “TREATMENT OF GLUCOSE INTOLERANCE” (AtheroNova Operations, Inc., priority 2009, published 2014)
“And” between values parts separate entries of the source, which are not always exact repeats. Identical values can stand only once. “Also recorded” adds a separate entry of the source. Like-named read-outs stand apart in the source and are kept apart here.

Tests used:
Fat Metabolism in Mice = assay: Determination of ketonuria in mice (urine ketone bodies, Ketostix strips); assay type: in vivo; set-up: key to Ketone level: —: No detectable levels of Ketone in the urine; Trace amount of Ketone (6 mg/dL) in the urine; Small amount of Ketone (15 mg/dL) in the urine; details: week 23; for Ketone level: urine of individual mice; for Average Ketone levels: urine
Procedure: In a preliminary in vivo experiment, four groups of mice (each group including three or four mice of same genetic background) were tested for levels of ketone bodies in their urine after consumption of the high fat and/or high cholesterol rodent chow diet supplemented with or without at least on biocompatible emulsifier. In this study, all mice in all groups (all being eight weeks old when this study commenced) were fed with high fat/high cholesterol chow diet (Catalog No. 12079B from Research Diets) for eight weeks. Starting at week 9, the diet of all mice was switched to low fat chow (AIN-76A Rodent Diet from Research Diets). For 15 weeks thereafter, the control mice of group A were fed with pure low fat chow while the mice in treated groups, B, C and D, were fed with low fat chow supplemented with at least one biocompatible emulsifier as follow: Group B mice were fed with low fat chow supplemented with 0.5% Hyodeoxycholic acid (HDCA) and 1.25% D-Limonene (DLM). Group C mice were fed with low fat chow supplemented with 5% DLM. Group D mice were fed with low fat chow supplemented with 1.25% HDCA.
At week 23 of the experiment, urine samples from each mice were taken and analyzed for ketone body levels using Ketostix® stips.

[1] = test system: C57BL/6 LDL r-KO knockout mice; details: HDCA fed, relative to mice not provided HDCA; cited from earlier work
[2] = Escape of oral HDCA from the entero-hepatic circulation into the systemic circulation; assay type: in vivo, human; details: 750 mg/day dose, average adult person weighing 70 kg, assuming about 70% enters systemic circulation
Text: (§1) It is know in the art that when hyodeoxycholic acid (a hydrophilic bile acid) is taken orally, it is absorbed through the gut and reaches the liver, but then a large fraction of it, up to 70%, escapes the entero-hepatic circulation, and enters the systemic circulation. See Salvioli et al., European Journal of Clinical Investigation, Vol. 18(1), pp. 22-28 (February 1988). Therefore, the induction of ketonuria is an indication that HDCA upon becoming bioavailable the systemic circulation is able to induce dissolution of the body fat.
(§2) Considering that about 70% of HDCA escapes the entero-hepatic pathway and enters into the systemic blood circulation, the 750 mg/day dose of HDCA averages to concentration of about 270 μM in the blood of an average adult person weighing 70 kg, as compared to normal levels of bile salts in the blood which are less than 10 μM. Some embodiments described herein are effective to mimic the high levels of bile salts observed as safe in Example 2, and in so doing are effective to result in the treatment of obesity.

[3] = wild-type mice provided dietary HDCA; cited from earlier work
[4] = taken orally, cited from earlier work
Fat Metabolism In Human = assay: Ketonuria in an individual taking oral HDCA (weekly Ketostix testing); assay type: in vivo; details: 250 mg orally three times a day (750 mg/day), 10 weeks, no caloric restriction, one individual
Text: as §1, §2
An in vivo experiment was performed to assess the effectiveness of HDCA in causing fat catabolism and treating obesity in human. In this experiment, an overweight individual otherwise healthy took 250 mg of HDCA three times a day (750 mg/day) for a period of 10 weeks without caloric restriction.

[5] = drug compared with placebo; cited from earlier work
[6] = low fat chow + 5% DLM (Group C)
[7] = low fat chow + 1.25% HDCA (Group D)

C=C(C)[C@H]1CC=C(C)CC1 [DLM, D-Limonene]
Ketone level (Fat Metabolism in Mice; [6]): — and T (Trace amount of Ketone (6 mg/dL) in the urine) (2×) and S (Small amount of Ketone (15 mg/dL) in the urine) | Average Ketone levels (Fat Metabolism in Mice; [6]): 42

C[C@H](CCC(=O)O)[C@H]1CC[C@H]2[C@@H]3C[C@H](O)[C@@H]4C[C@H](O)CC[C@]4(C)[C@H]3CC[C@]12C [HDCA, hyodeoxycholic acid]
Rate of formation of atherosclerotic plaque [1]: reduced rate of formation of atherosclerotic plaque | Average concentration in the blood [2]: about 270 μM | Plasma levels [3]: up to 50 μM | Fraction escaping the entero-hepatic circulation and entering the systemic circulation [4]: about 70% | Fraction escaping the entero-hepatic circulation and entering the systemic circulation ([4]; listed as hyodeoxycholic acid): up to 70% | Ketone level (Fat Metabolism in Mice; [7]): — and T (Trace amount of Ketone (6 mg/dL) in the urine) and S (Small amount of Ketone (15 mg/dL) in the urine) | Average Ketone levels (Fat Metabolism in Mice; [7]): 100 | Ketonuria / ketotic state (Fat Metabolism In Human): mild ketonuria; also recorded: mild ketotic state

CCN[C@@H](C)Cc1cccc(C(F)(F)F)c1 [dexfenfluramine]
Weight loss [5]: about 5 % of body weight

CCCCCCCCCCC[C@@H](C[C@@H]1OC(=O)[C@H]1CCCCCC)OC(=O)[C@H](CC(C)C)NC=O [orlistat]
Weight loss [5]: about 5 % of body weight

CC(C)(N)Cc1ccccc1 [phentermine]
Weight loss [5]: about 5 % of body weight

CC(C)CC(N(C)C)C1(c2ccc(Cl)cc2)CCC1 (centres unmarked) [sibutramine]
Weight loss [5]: about 5 % of body weight
